# Laboratory results as given in US12018029B2, “Hexahydropyrrolo[3,4-c]pyrrole derivatives useful as LOX inhibitors” (THE INSTITUTE OF CANCER RESEARCH: ROYAL CANCER HOSPITAL, priority 2018, dated 2024).
# How the values were obtained:
# [1] = tested on: PDAC KPC TRP53 R172H (p53 mut) cells; experiment: PDAC allograft, primary tumour, R172H (p53 mut); assay type: in vivo, mouse; details: ratio of average tumour volume treated/vehicle; 200 mg/kg po qd; p<0.05
# Protocol: (§1) All procedures involving animals were approved by the Animal Welfare and Ethical Review Body of the Institute of Cancer Research and Cancer Research UK Manchester Institute in accordance with National Home Office regulations under the Animals (Scientific Procedures) Act 1986 and according to the guidelines of the Committee of the National Cancer Research Institute Tumour size was determined by caliper measurements of tumour length, width and depth and volume was calculated as volume=0.5236×length×width×depth (mm).
# PDAC allografts: CD1 nu/nu female mice at 6 weeks of age were inoculated subcutaneously in the right flank with 2×10^6 PDAC KPC TRP53 R172H (p53 mut) cells at 100 ul suspension per animal. […] Tumours and weights are measured twice weekly using calipers. […] Frozen samples kept at −80 degree centigrade until being analysed and the fixed samples stained according to the desired marker.
# (§2) For therapeutic efficacy assessment, the ratio of average tumour volume between compound treated and vehicle control treated (T/C) is calculated. […] The efficacy of LOX inhibitors described in this invention, as measured by T/C in a pancreatic cancer model, a colorectal cancer model and a breast cancer model is shown in Table 3 and is significant (p<0.05) for all the data presented.
# LOX = target: T1, LOX (Mus musculus, UniProt P28301); experiment: LOX activity in cysts assay (roGFP2 LOX biosensor in MDCK cysts); assay type: cell-based; details: MDCK cysts; read-out: LOX biosensor IC50 (cyst)
# T1 construct: Full length LOX cDNA was then PCR cloned into pEGFP-N1 (Clonetech), or biosensor vector proGFP2-N1; expressed in transfected cells; host or cells: MDCK cells grown as cysts on Matrigel
# T1 sequence (P28301 163-411): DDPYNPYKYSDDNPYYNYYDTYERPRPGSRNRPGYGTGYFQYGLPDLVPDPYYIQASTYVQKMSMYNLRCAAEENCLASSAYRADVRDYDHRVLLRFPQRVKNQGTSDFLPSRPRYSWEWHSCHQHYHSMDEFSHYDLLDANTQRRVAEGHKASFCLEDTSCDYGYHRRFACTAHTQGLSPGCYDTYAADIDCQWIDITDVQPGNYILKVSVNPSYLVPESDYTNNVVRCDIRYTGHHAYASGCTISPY
# Protocol: LOX Activity in Cysts Assay (Tang et al, 2017).
# Cell Culture and Transfection
# Cell lines were purchased from American Type Culture Collection (ATCC). […] MDCK cell lines were cultured in Dulbecco's Modified Eagle Medium (DMEM):F12 media supplemented with 10% foetal bovine serum (FBS) and 1% Penicillin Streptomycin solution (Pen Strep). Cells were incubated at 37° C. in a humidified incubator with 5% CO2. Lipofectamine 3000 or lentivirus was used to transfect MDCK cells with GFP constructs and cells were selected with G418 (Life Technologies) at 5 mg/ml. Cell culture reagents were purchased from Life Technologies.
# To produce MDCK cysts, cells were cultured on Matrigel (Corning) with 2% Matrigel supplemented in DMEM with 10% FBS. Cysts were allowed to form for 10 days before subsequent studies.
# Cloning of LOX Expression Constructs
# Mouse LOX cDNA was purchased from OriGene. Full length LOX cDNA was then PCR cloned into pEGFP-N1 (Clonetech), or biosensor vector proGFP2-N1 (Hanson, 2004) using the following primers, […] (forward primer) and […] (reverse primer). For the insertion into pEGFP-N1 or proGFP2-N1, NheI and XhoI restriction sites were added to forward and reverse primers accordingly. Mutant LOX constructs were made using QuickChange II site-directed mutagenesis kit (Agilent Technologies) following manufacture's protocol using LOX-GFP as template. To generate, roGFP2 versions of LOX mutant constructs, LOX mutant cDNA was transferred from pEGFP-N1 to proGFP2-N1 using NheI and XhoI.
# Confocal Imaging and Imaging Analysis
# Photomicrographs of live MDCK cysts with a Leica TCS SP8 X confocal system were used to image the biosensor. The oxidised biosensor was excited using a 405 nm laser, while the reduced biosensor was excited with a 488 nm laser. Emission of the biosensor was recorded at 500 nm˜530 nm range using sequential scans. Ratio images were generated following a published protocol {Kardash, 2011 #376}. Note, while the published protocol generates YFP/CFP ratio images, we used it to generate Oxidised/Reduced (roGFP2 ratio) ratio images. The roGFP2 ratio at the basal surface of MDCK cysts was used to indicate LOX inhibition. LOX inhibitors were added 30 min prior to imaging.
# The inhibition of LOX in cysts treated with LOX inhibitors compared to control (DMSO vehicle treated) cysts is shown in Table 2. For clarity, readout for DMSO treated cysts represents 0% inhibition (no inhibition) and readout for BAPN at 1 mM is used as 100% inhibition (full inhibition).
# [2] = tested on: MMTV-PyMT mammary tumours; experiment: MMTV-PyMT transgenic mouse breast cancer model, primary tumour; assay type: in vivo, mice; details: ratio of average tumour volume treated/vehicle; @67 mpk po qd; p<0.05
# Protocol: as §1
# LOX Inhibitor Treatment of a Transgenic Mouse Breast Cancer Model
# MMTV-PyMT (Guy et al, 1992) (FVB) female mice were randomized by non-statistical methods to LOX inhibitor treatment groups from day 70 post-birth, when animals had no detectable tumour. […] Tumour size was determined unblinded by caliper measurements of tumour length, width and depth and volume was calculated as 0.5236×length×width×depth (mm). […]
# as §2
structure (smiles),measurement,setting,value
"CCOc1ccc(N2C[C@H]3CN(C(=O)NCCO)C[C@H]3C2)cc1 [Example 1, cis-5-(4-Ethoxyphenyl)-N-(2-hydroxyethyl)hexahydropyrrolo[3,4-c]pyrrole-2(1H)-carboxamide]","T/C, PDAC (mouse pancreatic carcinoma) primary tumour a) R172H (p53mut)",[1],a) 0.54
same,IC50,LOX,< 560 nM
same,"T/C, MMT-PyMT breast transgenic model - primary tumour",[2],0.3
